From patent US8415312B2, “Compound which is a nystatin derivative” (Biosergen AS, priority 2007, dated 2013)
Converted amounts (≈) assume the structure as drawn. “And” between values parts separate entries of the source, which are not always exact repeats. Equal entries are not always repeated.

How the values were obtained:
Candida albicans = test: Neutropenic mouse model of disseminated candidosis; type: in vivo
Description: Mice were rendered neutropenic by injection with cyclophosphamide monohydrate (Fluka, BioChemika, Sigma-Aldrich, Switzerland) intraperitoneally 2×100 mg/kg of body weight 1 day before infection.

[1] = system: mice (C57B1/6xDBA/2)F1 B6D2F1; details: for LD50 / MTD: single injection into tail vein, probit analysis
Procedure, shortened: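 Male B6D2F1 mice, 20-22 g, given one tail-vein injection of antibiotic suspended with sodium deoxycholate in phosphate buffer, within 1-1.5 h of preparation. Doses spanned 0% to 100% lethality with at least 3 intermediate doses, in randomized groups of 6 mice.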

[2] = system: Cryptococcus humicolus ATCC 9949; test: Antifungal susceptibility study (1), broth microdilution MIC; type: cell-based; details: lowest concentration preventing any visible growth, read at 48 hours, 25° C., RPMI 1640 pH 7.0
Procedure, shortened: (§1)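 Broth microdilution in test medium at pH 7.0 with two-fold compound dilutions (DMSO stocks diluted 50-fold into medium), inoculated with freshly grown yeast cultures. Plates were incubated without agitation at 35° C. for C. albicans or 25° C. for C. humicolus. MIC was taken as the concentration with no visible growth, read at 48 hours.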

[3] = system: Candida albicans ATCC 14053; test: as above; type: cell-based; details: lowest concentration preventing any visible growth, read at 48 hours, 35° C., RPMI 1640 pH 7.0
Procedure, shortened: as §1

erythrocytes = test: In vitro toxicity study, haemolysis (Tables 11 and 12); type: cell-based, horse
Description: The toxicity of various nystatin derivatives was tested at 2 and 5 μg/mL and at 25 μM.
Compounds were dissolved in DMSO at 5 mg/mL and 0.1 mL samples with different concentrations were prepared in DMSO. The samples were mixed with 0.9 mL PBS buffer containing 2.5% horse blood (PBS-HB; kept on ice) and incubated at 37° C. for 30 min without agitation.
Cells were pelleted by centrifugation at 5000 rpm for 5 min and haemolysis was evaluated by measuring OD545. 100% haemolysis was defined as the OD545 value obtained from a suspension of 2.5% horse blood in distilled water.

[4] = system: yeasts and filamentous fungi (moulds); test: Antifungal susceptibility study (1), overall comparison across the test organisms; type: cell-based; details: Table 5 MICs
Description: The organisms used for susceptibility testing were: Candida albicans ATCC 14053, Cryptococcus humicolus ATCC 9949, Aspergillus niger ATCC 16404 and Fusarium oxysporum VKM F-140 (=CMI, IMI 90473). Organisms were stored on potato dextrose agar […] 50% glycerol solution at -70° C. For short-term storage, stock cultures were stored on agar […] 4° C. The cultures of yeasts were sub-cultured onto Sabouraud dextrose (SAB) agar and incubated for 24 hours at 35° C. (Candida albicans) or for 48 hours at 25° C. (Cryptococcus humicolus) to obtain a freshly grown pure culture. The cultures of moulds were sub-cultured onto potato dextrose agar and incubated for 7 days at 35° C. […] (Fusarium oxysporum) to ensure maximum sporulation. Sterile 96-well flat-bottomed microtitration plates were used for testing. 100 μl of diluted inocula were dispensed into each microdilution well containing 100 μl of the double dilutions of compounds. Drug-free and yeast/mould-free controls were included. Microdilution trays were incubated at 35° C. (Candida albicans and moulds) or 25° C. (Cryptococcus humicolus) without agitation and observed for the presence or absence of visible growth. […] Minimal inhibitory concentrations (MICs) were read at 48 hours.

[5] = system: Candida albicans ATCC 10231; test: Antifungal susceptibility study (2), MIC50 by OD490 growth; type: cell-based; details: 50% growth inhibition from regression curve, M19 medium without NaCl, 30° C.
Description: The anti-fungal activity of several of the nystatin derivatives was further investigated. […] The anti-fungal activity of a number of the nystatin derivatives was therefore determined in a method which is designed to be more sensitive.
The test organism used for the further testing of polyene macrolide bioactivity was Candida albicans ATCC 10231, grown in 120 μl of standard M19 medium without NaCl (with an inoculum of 1000 cfu per well) and 30 μl of diluted polyene macrolide samples. The antibiotics were diluted in MeOH in series ensuring a spectrum of concentrations which yielded results ranging from complete growth inhibition to no inhibition of the test organism. The test organism cultures with antibiotic dilutions were incubated in 96-well microtiter plates at 30° C. without shaking, and growth was measured as OD490 after 12, 14 and 16 hours on a SpectraMax Plus microtiter plate reader. OD was plotted against antibiotic concentration, and MIC50 was estimated from the regression curve at 50% growth inhibition.

[6] = system: Fusarium oxysporum VKM F-140; test: Antifungal susceptibility study (1), broth microdilution MIC; type: cell-based; details: lowest concentration preventing any visible growth, read at 48 hours, 35° C., RPMI 1640 pH 7.0
Procedure, shortened: (§2)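 Broth microdilution was run at pH 7.0 with compounds diluted from DMSO solutions and mixed 1:1 with conidial inoculum. Spore suspensions were adjusted to OD530 0.09-0.11 for A. niger or 0.15-0.17 for F. oxysporum, then diluted 1:50. Plates were incubated at 35° C without agitation, and MIC was read at 48 hours as absence of visible growth.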

[7] = system: Aspergillus niger ATCC 16404; test: as above; type: cell-based; details: lowest concentration preventing any visible growth, read at 48 hours, 35° C., RPMI 1640 pH 7.0
Procedure, shortened: as §2

**Q.** Which results are given for `CC1C=CC=CC=CC=CC=CC=CC=CC(OC2OC(C)C(O)C(N)C2O)CC2OC(O)(CC(O)CC(O)CC(O)CC(O)CC(O)CC(=O)OC(C)C(C)C1O)CC(O)C2C.NC(CCC(=O)O)C(=O)O` (stereo not shown) [Compound 26]?
**A.** activity compared with amphotericin B (Candida albicans): less active than amphotericin B; acute toxicity, times lower than amphotericin B [1]: ~20 times; LD50 [1]: 50.0 mg/kg; MTD [1]: 43.1 mg/kg

**Q.** Which “MIC Cryptococcus humicolus ATCC 9949” value [2] does the source give for `CCOC(=O)CNC(=O)C1C(O)CC2(O)CC(O)C(O)CCC(O)CC(O)CC(O)CC(=O)OC(C)C(C)C(O)C(C)C=CC=CC=CC=CC=CC=CC=CC(OC3OC(C)C(O)C(N)C3O)CC1O2` (stereo not shown) [Compound 9] here?
**A.** The value was 1 µg/mL (≈ 0.991 µM).

**Q.** And the “MIC Candida albicans ATCC 14053” value [3]?
**A.** The value was 1 µg/mL (≈ 0.991 µM).

**Q.** And the “Haemolysis of erythrocytes, Mean ± S.E.M.” value (erythrocytes; 25 μM (Table 12))?
**A.** The value was 18.4 ± 1.9%.

**Q.** What about the Haemolysis of erythrocytes (erythrocytes; 25 μM, individual blood samples (Table 12)) of the same compound?
**A.** The Haemolysis of erythrocytes was 18.0% and 16.7% and 22.4% and 25% and 16.2% and 12.2%.

**Q.** And the “anti-fungal activity compared with Amphotericin B and S44HP” value [4]?
**A.** Its value is “comparable anti-fungal activity to Amphotericin B and S44HP”.

**Q.** What about the MIC50 [5] of the same compound?
**A.** The MIC50 was 0.13 µg/mL (≈ 0.129 µM).

**Q.** And the “MIC Fusarium oxysporum VKM F-140” value [6]?
**A.** Its value is 4 µg/mL (≈ 3.96 µM).

**Q.** And the “MIC Aspergillus niger ATCC 16404” value [7]?
**A.** Its value is 2 µg/mL (≈ 1.98 µM).

**Q.** Which “activity compared with amphotericin B” value (Candida albicans) does the source give for `CC1C=CC=CC=CC=CC=CC=CC=CC(OC2OC(C)C(O)C(N)C2O)CC2OC(O)(CC(O)CCCC(O)CC(O)CC(O)CC(=O)OC(C)C(C)C1O)CC(O)C2C.NC(CCC(=O)O)C(=O)O` (stereo not shown) [Compound 25] here?
**A.** Its value is “less active than amphotericin B”.

**Q.** What about the “acute toxicity, times lower than amphotericin B” value [1] of the same compound?
**A.** Its value is about 20 times.

**Q.** And the LD50 [1]?
**A.** The LD50 was 50.8 mg/kg.

**Q.** And the MTD [1]?
**A.** Its MTD is 42.8 mg/kg.
